Inhibition data for 1 molecule are collected here from patent US5851782A, “Inhibitors of ceramidase” (Duke University, priority 1996, dated 1998).

Usually inhibition stands for the percentage by which the read-out fell short of the control. Higher therefore signals strong suppression.

This assay deals with T1, acid ceramidase (Homo sapiens, UniProt Q13510).
T1 sequence (Q13510 22-395): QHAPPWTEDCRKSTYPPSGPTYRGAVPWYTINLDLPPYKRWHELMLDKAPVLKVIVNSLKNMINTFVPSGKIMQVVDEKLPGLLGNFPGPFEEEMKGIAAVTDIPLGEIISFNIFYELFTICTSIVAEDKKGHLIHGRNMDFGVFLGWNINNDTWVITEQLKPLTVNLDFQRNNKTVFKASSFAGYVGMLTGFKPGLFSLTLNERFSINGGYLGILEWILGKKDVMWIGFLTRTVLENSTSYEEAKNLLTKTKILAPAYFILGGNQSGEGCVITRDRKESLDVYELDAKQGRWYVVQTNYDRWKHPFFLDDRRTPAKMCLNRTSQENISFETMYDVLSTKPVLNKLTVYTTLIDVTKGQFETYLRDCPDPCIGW
Kind of assay: Acid ceramidase activity in vitro at pH 4.5. It counts as biochemical. Details: Ceramidase activity was determined from total homogenates of HL-60 cells; endogenous in cells; host or cells: HL-60 cells. The settings on record: 50 μM.

The structures appear in SMILES notation. Some results are limits rather than exact numbers.

Procedure: Measurement of ceramidase activity in HL-60 cells. Ceramidase activity in HL-60 cells was measured by a modification of the method of Gatt and Yavin (Methods Enzymol. 14:139 (1969)). Cells were disrupted by sonication in 0.25M sucrose, 1 mM EDTA, and centrifuged at 10,000×g for 10 min after which the supernatant was centrifuged at 100,000×g for 60 min. Ten μl of 1 mM ceramide substrate ([^3 H]C16 -ceramide) was mixed with 100 μl of Triton X-100 (0.1%) in chloroform/methanol, 2:1, and 100 μl of 0.2% sodium cholate in chloroform/methanol, 2:1, after which the solvent was evaporated under N2 at 70° C. To this mixture, 30 μl of water was added and the tubes were heated for 5 s in an 80° C. water bath and then put on ice. Fifty μl of the appropriate buffer depending on desired pH was added followed by 20 μl of 50 mM MgCl2 and 100 μl of cell extract. In experiments using inhibitors, the desired inhibitor was added in ethanol either with the substrate or directly to the final solution. The reaction mixture was incubated for 1 h at 37° C. The ^3 H-fatty acid products of ceramidase were separated by the addition of 2 ml of Dole's solution (isopropyl alcohol, heptane, NaOH), 1.2 ml of heptane, and 1 ml of water. After vortexing and centrifugation, the upper phase was discarded and the lower phase was washed twice with heptane and the upper phase discarded each time. […]

Turning to `CCCCCCCCCCCCCC(=O)N[C@H](C)[C@@H](O)c1ccccc1` [D-e-MAPP, D-erythro-2-(N-myristolyamino)-1-phenyl-1-propanol], the inhibition at 50 µM was under 10%.
